As a reminder, the IC50 is the concentration needed to halve the response being measured. A high value points to lower potency.

Each structure is given as a SMILES string.

Data on 16 compounds can be found in patent US20250084087A1, “BICYCLIC HETEROCYCLES AS MRGPRX2 ANTAGONISTS” (Incyte Corporation, priority 2023, published 2025).

For assay [1], the target named is T1, MRGPRX2 (Homo sapiens, UniProt Q96LB1).
T1 sequence (Q96LB1 1-330): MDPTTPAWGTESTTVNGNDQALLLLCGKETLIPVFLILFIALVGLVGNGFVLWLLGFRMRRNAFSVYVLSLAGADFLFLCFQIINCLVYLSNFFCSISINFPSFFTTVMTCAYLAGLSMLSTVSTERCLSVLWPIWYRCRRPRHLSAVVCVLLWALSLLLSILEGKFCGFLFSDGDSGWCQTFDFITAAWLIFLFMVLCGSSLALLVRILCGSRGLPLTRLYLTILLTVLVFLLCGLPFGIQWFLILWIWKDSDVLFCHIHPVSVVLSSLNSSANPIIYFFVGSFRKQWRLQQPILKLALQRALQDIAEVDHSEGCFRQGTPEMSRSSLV
Put plainly: MRGPRX2 IP1 HTRF assay. Further details: host or cells: CHO-K1. The following applies: CHO-K1 cells stably expressing human MRGPRX2; IP1 accumulation; agonist Cortistatin 14 1 μM. It counts as cell-based. The source says: Example B: MRGPRX2 IP1 HTRF Assay
This assay measures compound inhibition of myo-Inositol 1 phosphate (IP1) accumulation in CHO-K1 cells. Chinese hamster ovary (CHO-K1) cells stably expressing human MRGPRX2 were purchased from GenScript (Piscataway, NJ).
For the HTRF IP1 determination, an IP-One GqKit (Perkin Elmer Cisbio, Waltham, MA), which includes all reagents and buffers in this protocol, was used. The cells were maintained in culture medium (Ham's F-12K) containing 10% (v/v) FBS, and 200 μg/mL Zeocin. For the assay, the cells were harvested and resuspended in culture medium with 2% FBS and without Zeocin, then were passed through a 40 μm filter. Cells were added at 20000 cells in a 5 μL/well to a 384-well white small volume cell culture plate (Greiner VWR, Radnor, PA) which contained 50 nL/well of test compound serially diluted at a selected concentration range in DMSO. 5 μL/well of prepared 2× Stimulation Buffer2 was then added to plates and was incubated at 37° C. with 5% CO2 for 1 h. 5 μL/well of agonist Cortistatin 14 (Bio-TechneR&D Systems, Minneapolis, MN) in 1× Stimulation Buffer2, for a 1 μM final concentration, was then added to plates and incubated at 37° C. with 5% CO2 for 1 h. 6 μL/well of 1:20 diluted Detection Reagent Mix (d2 and Cryptate) was added to the plates and incubated for 1 h in the dark. Plates were read on the PHERAstar microplate reader (BMG Labtech Cary, NC) to determine the HTRF ratio of the acceptor and donor emission signals. The IP1 concentrations were calculated from a standard curve following the IP-One GQ kit instructions. Wells with DMSO only and wells with high concentration of reference antagonist were used as controls for normalization. Compound IC50 curves were globally fitted with 3- or 4-parameter Hill equation in a Genedata Screener (Genedata Basel, Switzerland).
Background: In TR-FRET formats the signal depends on donor and acceptor labels being close together.

Assay [2] concerns the target T1, MRGPRX2. Briefly: MRGPRX2 β-Arrestin recruitment assay (PathHunter). The following applies: PathHunter CHO-K1 MRGPRX2 β-Arrestin cell line; agonist Cortistatin 14 0.25 μM. It counts as cell-based. More on the design: host or cells: CHO-K1 (PathHunter). The text has this:
Example C: MRGPRX2 P-Arrestin Assay
This assay measures compound inhibition of P-Arrestin recruitment, which is part of the G protein-independent pathway that results from the ligand-activated GPCR phosphorylation by specific GPCR kinases. The PathHunter CHO-K1 MRPGRX2 B-Arrestin Cell line stably expressing ProLink tagged MRGPRX2 and Enzyme Acceptor Tagged B-Arrestin was purchased from Eurofins DiscoverX, (Fremont, CA).
The cells were maintained in culture medium from the Europhins DiscoverX Cell Culture Kit-107 which includes FBS, hygromycin B and G418. For the assay, the cells were harvested and were resuspended with Cell Plating Reagent 2 (Eurofins DiscoverX). Cells were added 10000 cells in 25 μL/well to a 384-well black cell culture plate (Greiner VWR, Radnor, PA) which contained 125 nL/well of compound at a selected serially diluted concentration range or DMSO. The plate was incubated at 37° C. with 5% CO2 for 1 h. 2 μL/well of agonist Cortistatin 14 was diluted in Protein Dilution Buffer, (Eurofins DiscoverX) for a final concentration of 0.25 μM, was added and the plate was incubated at 37° C. with 5% CO2 for 90 min. 14 μL/well of Detection Reagent Mix (PathHunter Detection Kit, Eurofins DiscoverX) was added to the plates and further incubated for 1 h in the dark. Plates were read on the PHERAstar microplate reader (BMG Labtech Cary, NC) measuring luminescence 0.1 to 1 second per well. Data was normalized using DMSO only wells and wells with high concentration of reference antagonist as controls. Compound IC50 curves were globally fitted with 3- or 4-parameter Hill equation in a Genedata Screener (Genedata Basel, Switzerland).

On to `C[C@]1(O)C[C@@H](NC(=O)N2CC(CNc3cc(C(F)(F)F)nc4cc(C(F)(F)F)nn34)(c3ccc(F)cc3)C2)C1` [Example 52, 3-(((2,5-Bis(trifluoromethyl)pyrazolo[1,5-a]pyrimidin-7-yl)amino)methyl)-3-(4-fluorophenyl)-N-((1s,3s)-3-hydroxy-3-methylcyclobutyl)azetidine-1-carboxamide], for which the IC50 on MRGPRX2 [1] and on MRGPRX2 [2] was 0.1 to 100 nM in each case.
As to `O=C(N[C@@H]1CC[C@@H](O)C1)N1CC(CNc2cc(C(F)(F)F)nc3cc(C(F)(F)F)nn23)(c2ccc(F)cc2)C1` [Example 53, 3-(((2,5-Bis(trifluoromethyl)pyrazolo[1,5-a]pyrimidin-7-yl)amino)methyl)-3-(4-fluorophenyl)-N-((1R,3R)-3-hydroxycyclopentyl)azetidine-1-carboxamide], the IC50 at MRGPRX2 [1] and at MRGPRX2 [2] was 0.1 to 100 nM throughout.
Regarding `O=C(N[C@H]1CC[C@](O)(C(F)(F)F)CC1)N1CC(CNc2cc(C(F)(F)F)nc3cc(C(F)(F)F)nn23)(c2ccc(F)cc2)C1` [Example 54, 3-(((2,5-Bis(trifluoromethyl)pyrazolo[1,5-a]pyrimidin-7-yl)amino)methyl)-3-(4-fluorophenyl)-N-((1s,4s)-4-hydroxy-4-(trifluoromethyl)cyclohexyl)azetidine-1-carboxamide], the IC50 at MRGPRX2 [1] and at MRGPRX2 [2] was 0.1 to 100 nM in each case.
For `CC(C)(O)[C@H]1CC[C@H](NC(=O)N2CC(CNc3cc(C(F)(F)F)nc4cc(C(F)(F)F)nn34)(c3ccc(F)cc3)C2)CC1` [Example 55, 3-(((2,5-Bis(trifluoromethyl)pyrazolo[1,5-a]pyrimidin-7-yl)amino)methyl)-3-(4-fluorophenyl)-N-((1r,4r)-4-(2-hydroxypropan-2-yl)cyclohexyl)azetidine-1-carboxamide], the IC50 at MRGPRX2 [1] and on MRGPRX2 [2] was 0.1 to 100 nM throughout.
Take `O=C(N[C@@H]1CC[C@@H](O)C1)N1CCC(CNc2cc(C(F)(F)F)nc3cc(C(F)(F)F)nn23)(c2ccc(F)cc2)CC1` [Example 56, 4-(((2,5-Bis(trifluoromethyl)pyrazolo[1,5-a]pyrimidin-7-yl)amino)methyl)-4-(4-fluorophenyl)-N-((1R,3R)-3-hydroxycyclopentyl)piperidine-1-carboxamide]: the half-inhibitory concentration (IC50) at MRGPRX2 [1] and at MRGPRX2 [2] was 0.1 to 100 nM each time.
Turning to `N#CC12CC(NC(=O)N3CC(CNc4cc(C(F)(F)F)nc5cc(C(F)(F)F)nn45)(c4cc(F)cc(F)c4)C3)(C1)C2` [Example 65, 3-(((2,5-Bis(trifluoromethyl)pyrazolo[1,5-a]pyrimidin-7-yl)amino)methyl)-N-(3-cyanobicyclo[1.1.1]pentan-1-yl-3-3,5-difluorophenyl)azetidine-1-carboxamide], the IC50 on MRGPRX2 [1] and at MRGPRX2 [2] was 0.1 to 100 nM in each case.
Turning to `O=C(N[C@H]1CC[C@H](O)CC1)N1CC(CNc2cc(C3CC3)nc3cc(C(F)(F)F)nn23)(c2ccc(F)cc2)C1` [Example 69, 3-(((5-Cyclopropyl-2-(trifluoromethyl)pyrazolo[1,5-a]pyrimidin-7-yl)amino)methyl)-3-(4-fluorophenyl)-N-((1r,4r)-4-hydroxycyclohexyl)azetidine-1-carboxamide], the IC50 at MRGPRX2 [1] and on MRGPRX2 [2] was 0.1 to 100 nM each time.
For the compound `CCc1cc(NCC2(c3ccc(F)cc3)CN(C(=O)NCC(F)(F)F)C2)n2nc(C(F)(F)F)cc2n1` [Example 71, 3-(((5-Ethyl-2-(trifluoromethyl)pyrazolo[1,5-a]pyrimidin-7-yl)amino)methyl)-3-(4-fluorophenyl)-N-(2,2,2-trifluoroethyl)azetidine-1-carboxamide], the IC50 on MRGPRX2 [1] and at MRGPRX2 [2] was 0.1 to 100 nM throughout.
On to `CC(C)(O)CNC1CC(CNc2cc(C(F)(F)F)nc3cc(C(F)(F)F)nn23)(c2ccc(F)cc2)C1` (centres unmarked) [Example 73, 1-((3-(((2,5-Bis(trifluoromethyl)pyrazolo[1,5-a]pyrimidin-7-yl)amino)methyl)-3-(4-fluorophenyl)cyclobutyl)amino)-2-methylpropan-2-ol], for which the IC50 on MRGPRX2 [1] and on MRGPRX2 [2] was 0.1 to 100 nM in each case.
Regarding `CC(C)(O)CNC1CCC(CNc2cc(C(F)(F)F)nc3cc(C(F)(F)F)nn23)(c2ccc(F)cc2)CC1` (centres unmarked) [Example 74, 1-((4-(((2,5-Bis(trifluoromethyl)pyrazolo[1,5-a]pyrimidin-7-yl)amino)methyl)-4-(4-fluorophenyl)cyclohexyl)amino)-2-methylpropan-2-ol], the IC50 at MRGPRX2 [1] and on MRGPRX2 [2] was 0.1 to 100 nM throughout.
On to `Cn1ccc(N2CC(CNc3cc(C(F)(F)F)nc4cc(C(F)(F)F)nn34)(c3ccc(F)cc3)C2)nc1=O` [Example 90, 4-(3-(((2,5-Bis(trifluoromethyl)pyrazolo[1,5-a]pyrimidin-7-yl)amino)methyl)-3-(4-fluorophenyl)azetidin-1-yl)-1-methylpyrimidin-2(1H)-one], for which the IC50 at MRGPRX2 [1] and at MRGPRX2 [2] was 0.1 to 100 nM each time.
Take `C[C@]1(O)C[C@H](NC(=O)N2CC(CNc3cc(C(F)(F)F)nc4cc(C(F)(F)F)nn34)(c3ccc(F)cc3)C2)C1` [Example 91, 3-(((2,5-Bis(trifluoromethyl)pyrazolo[1,5-a]pyrimidin-7-yl)amino)methyl)-3-(4-fluorophenyl)-N-((1r,3r)-3-hydroxy-3-methylcyclobutyl)azetidine-1-carboxamide]: the IC50 on MRGPRX2 [1] and on MRGPRX2 [2] was 0.1 to 100 nM in each case.
Consider `O=C(NC[C@H]1C[C@H](O)C1)N1CC(CNc2cc(C(F)(F)F)nc3cc(C(F)(F)F)nn23)(c2ccc(F)cc2)C1` [Example 92, 3-(((2,5-Bis(trifluoromethyl)pyrazolo[1,5-a]pyrimidin-7-yl)amino)methyl)-3-(4-fluorophenyl)-N-(((1r,3r)-3-hydroxycyclobutyl)methyl)azetidine-1-carboxamide], for which the IC50 on MRGPRX2 [1] and on MRGPRX2 [2] was 0.1 to 100 nM throughout.
In the case of `O=C(N[C@H]1CC[C@@H]1O)N1CC(CNc2cc(C(F)(F)F)nc3cc(C(F)(F)F)nn23)(c2ccc(F)cc2)C1` [Example 93, 3-(((2,5-Bis(trifluoromethyl)pyrazolo[1,5-a]pyrimidin-7-yl)amino)methyl)-3-(4-fluorophenyl)-N-((1S,2S)-2-hydroxycyclobutyl)azetidine-1-carboxamide], the IC50 on MRGPRX2 [1] and at MRGPRX2 [2] was 0.1 to 100 nM throughout.
In the case of `O=C(N[C@H]1CC[C@H](O)CC1)N1CC(CNc2cc(C(F)(F)F)nc3cc(C(F)F)nn23)(c2ccc(F)cc2)C1` [Example 98, 3-(((2-(Difluoromethyl)-5-(trifluoromethyl)pyrazolo[1,5-a]pyrimidin-7-yl)amino)methyl)-3-(4-fluorophenyl)-N-((1r,4r)-4-hydroxycyclohexyl)azetidine-1-carboxamide], the IC50 at MRGPRX2 [1] and on MRGPRX2 [2] was 0.1 to 100 nM throughout.
As for `O=C(N[C@H]1CC[C@H](O)CC1)N1CC(CNc2cc(C(F)(F)F)nc3cc(C(F)(F)F)nn23)(c2ccc(F)cn2)C1` [Example 99, 3-(((2,5-Bis(trifluoromethyl)pyrazolo[1,5-a]pyrimidin-7-yl)amino)methyl)-3-(5-fluoropyridin-2-yl)-N-((1r,4r)-4-hydroxycyclohexyl)azetidine-1-carboxamide], the IC50 on MRGPRX2 [1] and on MRGPRX2 [2] was 0.1 to 100 nM in each case.
